{"source": "ChEMBL document CHEMBL1137480", "about": "“Synthesis and structure-activity relationship of 7-(substituted)-aminomethyl-4-quinolone-3-carboxylic acid derivatives” (2007)", "assay_type_in_all_cases": "functional", "key": {"Staphylococcus aureus": {"tested_on": "Staphylococcus aureus", "assay": "Antibacterial activity against Staphylococcus aureus 26003 after 24 hrs by agar dilution method"}, "[1]": {"tested_on": "Staphylococcus epidermidis", "assay": "Antibacterial activity against Staphylococcus epidermidis 26069 after 24 hrs by agar dilution method"}, "Streptococcus pneumoniae": {"tested_on": "Streptococcus pneumoniae", "assay": "Antibacterial activity against Streptococcus pneumoniae 31002 after 24 hrs by agar dilution method"}, "Shigella boydii": {"tested_on": "Shigella boydii", "assay": "Antibacterial activity against Shigella boydii 51313 after 24 hrs by agar dilution method"}, "Klebsiella pneumoniae": {"tested_on": "Klebsiella pneumoniae", "assay": "Antibacterial activity against Klebsiella pneumoniae 46101 after 24 hrs by agar dilution method"}, "Salmonella": {"tested_on": "Salmonella", "assay": "Antibacterial activity against […] 48107 after 24 hrs by agar dilution method"}}, "data": [{"smiles": "CN[C@H](CC(C)C)C(=O)N[C@H]1C(=O)N[C@@H](CC(N)=O)C(=O)N[C@H]2C(=O)N[C@H]3C(=O)N[C@H](C(=O)N[C@H](C(=O)O)c4cc(O)cc(O)c4-c4cc3ccc4O)[C@H](O)c3ccc(c(Cl)c3)Oc3cc2cc(c3O[C@@H]2O[C@H](CO)[C@@H](O)[C@H](O)[C@H]2O[C@H]2C[C@](C)(N)[C@H](O)[C@H](C)O2)Oc2ccc(cc2Cl)[C@H]1O", "note": "[VANCOMYCIN]", "values": [{"measurement": "MIC", "setting": "Staphylococcus aureus", "value": 0.39, "unit": "µg/mL"}, {"measurement": "MIC", "setting": "[1]", "value": 0.78, "unit": "µg/mL"}, {"measurement": "MIC", "setting": "Streptococcus pneumoniae", "value": 0.098, "unit": "µg/mL"}, {"measurement": "MIC", "setting": "Shigella boydii", "value": "> 6.25", "unit": "µg/mL"}, {"measurement": "MIC", "setting": "Klebsiella pneumoniae", "value": "> 6.25", "unit": "µg/mL"}, {"measurement": "MIC", "setting": "Salmonella", "value": "> 6.25", "unit": "µg/mL"}]}]}
